# Reference: patent publication US12318361B2, “Methods for treating cardiovascular diseases” (Olatec Therapeutics LLC, priority 2017, dated 2025)
# Test system: mice, intra-articular zymosan arthritis model
# Assay: Zymosan-induced knee joint arthritis in mice
# Type: in vivo
# Conditions: 600 mg/kg oral gavage, 5 doses, 24 h after zymosan
# Experimental: Zymosan injected directly into the knee joint of mice elicits an inflammatory response and is used as a model of arthritis (Verschure et al, Ann. Rheum Dis. 53:455-460, 1994). Endpoints measured in this model include knee joint swelling score, cytokine levels in the synovial tissue and microscopic pathology of the knee.
# Arthritis was induced in mice by intra-articular injection of zymosan (180 μg) into the knee joint (at time zero) of both knees in each mouse. Mice were treated by oral gavage with vehicle (saline, n=5) or dapansutrile (drug) in vehicle (600 mg/kg, n=4) at times −25 hr, −13 hr, and −1 hr. After zymosan injection at time zero, mice were further treated with vehicle or dapansutrile (600 mg/kg) at times +11 hr and +23 hr. Mice were terminated 24 hours after the zymosan injection.
# Macroscopic joint swelling was assessed on all knees after the skin is removed using a scoring system ranging from 0 to 3, with 0 being no swelling and 3 being severe swelling.
# In addition, synovial membrane was taken from one knee per mouse and the cells were lysed for measurement of mouse IL-1β, using an ELISA kit from R&D Systems, Inc., following manufacturer's protocols. The results are shown as mean ±standard error of mean and statistical evaluation is performed (see FIG. 2).
structure (smiles),measurement,setting,value
"CS(=O)(=O)CCC#N [OLT1177™, 3-methanesulfonyl-propionitrile]",level of IL-1β in synovial membrane,vs untreated mice,significantly reduced
same,macroscopic joint swelling (score 0 to 3),vs vehicle-treated mice,significant reduction
